# Results as given in PMC3458020, “High-Throughput Screening for Novel Inhibitors of Neisseria gonorrhoeae Penicillin-Binding Protein 2” (PLoS ONE, 2012).
# Where two headings read alike, the source gives them in different places.
# How the values were obtained:
# [1] = system: N. gonorrhoeae 35/02; assay: MIC on GCB agar plates, strain 35/02; type: cell-based; details: Neisseria gonorrhoeae
# Protocol: (§1) Three strains of N. gonorrhoeae were used in susceptibility tests: 1) FA19, a penicillin-and cephalosporin-susceptible strain; 2) FA6140, a penicillin-resistant but cephalosporin-susceptible strain; and 3) 35/02, a penicillin-resistant and cephalosporin intermediate-resistant strain. The disc diffusion zone method was applied for preliminary testing of “hits” identified in the screening process. For this method, 100 µl of a cell suspension (∼1×10^7 bacteria) was added to 3 ml of GCB top agar (GC Broth containing 0.75% agar) at 50 °C, which was then added to GCB plates and allowed to solidify. Five µl of each compound (5 µg) was added separately to antibiotic susceptibility discs (BBL™, BD, Franklin Lakes, NJ), the discs were placed on top of plates, and the plates were incubated overnight in a 4% CO2 incubator at 37 °C. Those compounds that produced a visible zone of inhibition were then tested for their MICs on agar plates as described. Briefly, GCB agar plates containing increasing amounts of the tested compounds were spotted with 5×10^4 cells. The lowest concentration of the test compound that prevented growth of <5 colonies was defined as the MIC. These experiments were repeated three times, with each experiment producing similar results.
# [2] = target: T1, N. gonorrhoeae PBP 2 (Neisseria gonorrhoeae, UniProt P08149); assay: FP-based concentration-response competition assay with Bocillin-FL; type: binding; details: 1 µM PBP 2, 1 µM Bocillin-FL
# T1 construct: A soluble construct of wild-type PBP 2; made in house
# T1 sequence (P08149 44-581 limits assumed): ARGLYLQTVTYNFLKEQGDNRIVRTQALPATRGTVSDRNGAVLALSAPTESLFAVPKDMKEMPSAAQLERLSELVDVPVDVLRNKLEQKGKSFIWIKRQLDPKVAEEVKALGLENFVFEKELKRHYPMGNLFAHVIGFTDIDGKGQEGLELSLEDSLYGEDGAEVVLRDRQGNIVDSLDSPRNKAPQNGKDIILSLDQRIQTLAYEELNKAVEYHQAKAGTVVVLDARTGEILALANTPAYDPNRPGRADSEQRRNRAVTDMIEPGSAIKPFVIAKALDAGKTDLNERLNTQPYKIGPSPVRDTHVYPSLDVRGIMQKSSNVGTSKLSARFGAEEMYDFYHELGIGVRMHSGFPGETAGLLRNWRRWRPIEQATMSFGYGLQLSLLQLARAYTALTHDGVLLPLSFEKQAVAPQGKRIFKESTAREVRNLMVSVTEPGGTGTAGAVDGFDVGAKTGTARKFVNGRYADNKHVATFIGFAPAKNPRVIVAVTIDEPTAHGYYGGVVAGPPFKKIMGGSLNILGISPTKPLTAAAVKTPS
# Protocol: (§2) A soluble construct of wild-type PBP 2 from the penicillin-susceptible strain of N. gonorrhoeae FA19 was expressed and purified as described previously. Bocillin FL™ was obtained from Invitrogen Inc. (Carlsbad, CA). Penicillin G and γ-Globulins from bovine blood (BGG) were purchased from Sigma (St. Louis, MO). Prior to use, all reagents were diluted in an assay buffer comprising 50 mM potassium phosphate, pH 8, and 0.1 mg/ml BGG. The DIVERSet library of 50,080 small lead compounds from ChemBridge Corporation (San Diego, CA) was provided by the MUSC Drug Discovery Core (DDC). Three laboratory strains of N. gonorrhoeae–FA19 [28], penicillin-resistant FA6140 [29], and cephalosporin-intermediate resistant Ceph^I strain 35/02 [30]–were from the laboratory collection of R. Nicholas (UNC-Chapel Hill).
# (§3) Measurements of fluorescence and FP were performed on a Spectramax M5 microplate reader (Molecular Devices, Sunnyvale, CA) with excitation and emission wavelengths of 485 nm and 520 nm, respectively, using a 515 nm filter to block residual excitation light and to minimize background interference. Black, shallow 384-well micro plates (ProxiPlate ™ –384 F Plus, PerkinElmer) were used to record data. To minimize the polarization effects from any fluorophore bound to the surface of the well, both excitation and emission data were recorded from the top of the well. Reading time was 100 ms per well. Fluorescence polarization was quantified in millipolarization units (mP) according to the equation, mP = 1000×[(Iv − G.Ih)/(Iv + G.Ih)], where Iv and Ih are parallel and perpendicular emission intensity measurements, respectively, corrected for background (buffer), and G is the instrument-dependent correction coefficient, defined as a ratio of sensitivities of the detection system for vertically and horizontally polarized light. Using the equation G = Iv/Ih and SoftMax® Pro Data Acquisition & Analysis Software (Molecular Devices, Sunnyvale, CA), the G-factor was determined with dilution series of Bocillin-FL-only (free tracer). The assay window (ΔmP) was defined as the difference between protein-tracer sample and free-tracer, i.e. ΔmP = mPs – mPfree, and is a measure of the maximum specific binding.
# To evaluate the performance of the assay, steady-state concentration-response experiments were carried out using penicillin G in a competition assay with Bocillin-FL. Penicillin G (0.05–1000 µM) was mixed with 1 µM PBP 2 and 1 µM Bocillin-FL, followed by a 1 hr incubation. The positive (Pc) and negative (Nc) controls were defined as the FP of the Bocillin-FL - protein and of the free tracer, respectively, in the absence of penicillin G. The FP of the Bocillin-FL - protein at 100 µM penicillin G was defined as a displaced tracer control (Dc). Since DMSO was used as a solvent in the compound library, the effect of 10% DMSO on the FP-binding assay was also determined. Data points were normalized to the maximum specific binding, which defines complete saturation of PBP 2 by Bocillin-FL in the absence of penicillin G, and IC50 values were determined using non-linear regression analysis using GraphPad Prism version 4.00 for Windows (GraphPad Software, Inc, San Diego, CA).
# For the FP experiments, 0.01–200 µM of each potential hit was incubated with PBP 2 (1 µM) for 1 h, followed by an additional 30 min incubation with 1 µM Bocillin-FL to detect the residual activity of the labeled penicillin binding. For the SDS-PAGE-based concentration-response experiments, PBP 2 (1 µM) in 50 mM sodium phosphate, 0.01% Triton X-100, pH 8 was incubated with 0.05–1000 µM of a compound for 1 h, followed by additional 15 min incubation with 10 µM Bocillin-FL. The reaction was stopped by mixing each sample with 5 X SDS-loading buffer, followed by boiling for 2 min. The samples were submitted to electrophoresis on 10% Mini-Protean TGX™ SDS-PAGE gels (Bio-Rad, Hercules, CA) to separate bound PBP 2 from free ligand. […]
# [3] = system: N. gonorrhoeae FA6140; assay: MIC on GCB agar plates, strain FA6140; type: cell-based; details: Neisseria gonorrhoeae
# Protocol: as §1
# [4] = target: T1, N. gonorrhoeae PBP 2; assay: SDS-PAGE-based concentration-response assay with Bocillin-FL (0.01% Triton X-100); type: binding
# Protocol: as §2
# For the FP experiments, 0.01–200 µM of each potential hit was incubated with PBP 2 (1 µM) for 1 h, followed by an additional 30 min incubation with 1 µM Bocillin-FL to detect the residual activity of the labeled penicillin binding. For the SDS-PAGE-based concentration-response experiments, PBP 2 (1 µM) in 50 mM sodium phosphate, 0.01% Triton X-100, pH 8 was incubated with 0.05–1000 µM of a compound for 1 h, followed by additional 15 min incubation with 10 µM Bocillin-FL. The reaction was stopped by mixing each sample with 5 X SDS-loading buffer, followed by boiling for 2 min. The samples were submitted to electrophoresis on 10% Mini-Protean TGX™ SDS-PAGE gels (Bio-Rad, Hercules, CA) to separate bound PBP 2 from free ligand. At least two independent reactions were performed in duplicate at each concentration of an inhibitor. Gels were visualized by UV using a Kodak EDAS 290 imaging system (Scientific Imaging Systems Eastman Kodak, New Haven, CT, USA) and the protein bands were stained with Coomassie to verify equal loading. Densitometry was performed with ImageJ 1.37v program (National Institutes of Health, USA, http://rsb.info.nih.gov/ij/). In both methods, data points were normalized to the maximum value of the fluorescence intensity, which defines complete saturation of PBP 2 by Bocillin-FL in the absence of compound, and IC50 values of the inhibitors were defined as the concentration of a compound at 50% of the residual activity of Bocillin-FL and calculated using GraphPad Prism (see above).
# [5] = target: T1, N. gonorrhoeae PBP 2; assay: FP high-throughput screening assay (Bocillin-FL binding to PBP 2); design: Inhibition (%) of Bocillin-FL binding to PBP 2: concentration or dose not given beside the values; details: four replicates; for Compound (mP) (mean ± SD): FP signal of individual compound with PBP 2 and Bocillin-FL; for Inhibition (%) of Bocillin-FL binding to PBP 2: individual compounds
# Protocol: as §2, §3
# HTS screening against the ChemBridge DIVERSet library was carried out under the following conditions: 1 µl of each compound (10% DMSO final) in duplicate was pre-incubated with 9 µl of PBP 2 for 1 h at room temperature, followed by additional 30 min incubation with 2 µl Bocillin-FL (0.87 µM PBP2∶ 1 µM Bocillin-FL final). In addition to samples with the compounds, each plate also contained 2 background wells (12 µl buffer only), and at least 4 wells each for Pc, Nc, and Dc reactions. All samples used for background measurements or controls included 10% DMSO. Initial screening was carried out with 10 mM cocktails of 10 compounds (giving a final concentration of 100 µM for each compound). […] The auto fluorescence of each compound was also tested individually.
# [6] = system: N. gonorrhoeae FA19; assay: MIC on GCB agar plates, strain FA19; type: cell-based; details: Neisseria gonorrhoeae
# Protocol: as §1
# [7] = target: T2, PBP 2 (Neisseria gonorrhoeae, UniProt P08149); assay: Mass spectrometry test for covalent interaction with PBP 2; details: data not shown
# T2 construct: A soluble construct of wild-type PBP 2; made in house
# T2 sequence (P08149 44-581 limits assumed): as above
# [8] = penicillin-resistant, cephalosporin intermediate-resistant strain 35/02, read-out: MIC 35/02
# [9] = IC50 measured by FP, 0.01–200 µM compound, four replicates
# [10] = penicillin-resistant, cephalosporin-susceptible strain FA6140, read-out: MIC FA6140
# [11] = IC50, SDS-PAGE assay, 1 µM PBP 2, 10 µM Bocillin-FL, 0.01% Triton X-100
# [12] = IC50 measured by SDS-PAGE, 0.01% Triton X-100, 1 µM PBP 2, 10 µM Bocillin-FL, two independent experiments
# [13] = penicillin- and cephalosporin-susceptible strain FA19, read-out: MIC FA19
Structure (SMILES),"MIC [1, 8] [µg/mL]","IC50 [2, 9] [µM]","MIC [3, 10] [µg/mL]","IC50 [4, 11] [µM]","IC50 [4, 12] [µM]",Compound (mP) (mean ± SD) [5],Inhibition (%) of Bocillin-FL binding to PBP 2 [5] [%],"MIC [6, 13] [µg/mL]","MIC ([1]; strain 35/02, MIC given in µM, read-out: MIC 35/02) [µM]","MIC ([3]; strain FA6140, MIC given in µM, read-out: MIC FA6140) [µM]","IC50 ([4]; IC50, SDS-PAGE assay, same IC50 given in µg/ml) [µM]",Covalent interaction with PBP 2 (mass of the protein) [7],"MIC ([6]; strain FA19, MIC given in µM, read-out: MIC FA19) [µM]","IC50 ([2]; IC50 of penicillin G for PBP 2 (FP-based competition assay), with 10% DMSO) [µM]","IC50 ([2]; IC50 of penicillin G for PBP 2 (FP-based competition assay), without DMSO) [µM]","MIC ([1]; 35/02, read-out: MIC 35/02) [µg/mL]","MIC ([3]; FA6140, read-out: MIC FA6140) [µg/mL]","MIC ([6]; FA19, read-out: MIC FA19) [µg/mL]"
CCc1ccc(O)c(/N=C/c2cc(I)cc(I)c2O)c1 [Compound 1],16,114,16,221,221,31.4±0.1,108.2,4,–,–,–,–,–,–,–,–,–,–
O=Cc1cc(Cc2ccccc2)cc([N+](=O)[O-])c1O [Compound 2],8,330,16,128,128,60.4±20.3,85.8,4,–,–,–,–,–,–,–,–,–,–
O=S(=O)(Nc1ccc(O)c2ccccc12)c1cccc2ccccc12 [Compound 4],16,51.4,16,50,50.2,35.6±2.1,105.4,16,–,–,–,–,–,–,–,–,–,–
CCc1ccc(S(=O)(=O)Nc2ccc(O)c3ccccc23)cc1 [Compound 5],16,52.1,16,56,56.3,43.3±0.8,97.6,8,–,–,–,–,–,–,–,–,–,–
Sc1nnc(-c2ccc(Cl)cc2Cl)n1/N=C/C=C/c1ccco1 [Compound 3],32,129,32,898,–,65.7±12.4,81.8,16,–,–,–,–,–,–,–,–,–,–
CN1C(=O)/C(=C2\SC(=S)NC2=O)c2cc(Br)ccc21 [Compound 7],8,11.3,8,153,153,45.2±20.2,96.6,2,23.4,23.4,152,no increase in mass of the protein was observed,5.6,–,–,–,–,–
"CC1(C)S[C@@H]2[C@H](NC(=O)Cc3ccccc3)C(=O)N2[C@H]1C(=O)O [Penicillin G, reference compound]",–,–,–,–,–,–,–,–,–,–,–,–,–,1,1.4,–,–,–
O=c1sc2ccccc2c(O)c1C(c1ccccc1)c1c(O)c2ccccc2sc1=O [Compound 6],–,50.9,–,49,49.3,54.6±3.2,89.5,–,–,–,–,–,–,–,–,8,8,4
